Here are results for 16 molecules from patent US20070059799A1 (priority 1999, published 2007).

Like-named read-outs stand apart in the source and are kept apart here. Marks after values point to notes of the source that are not given here.

By IC50 is commonly meant the concentration that gives 50% inhibition. Read a high IC50 as lower potency.

One test addresses T1, A*0301 (Homo sapiens, UniProt P04439).
T1 construct: endogenous in cells; host or cells: GM3107
Kind of test: Purified HLA class I peptide binding assay (HLA-A*03).

A further test has as its target A*3101 (Homo sapiens, UniProt P04439, A270S/D185E/E176V/E277Q/F33T/G231S/G80R/H175R/I121M/I218V/I322F/K168Q/L300P/L318F/M331R/P217A/Q94H/R138Q/T323A/T345S/T97I/V358M). Kind of test: Purified HLA class I peptide binding assay.
A further test concerns CTL. The test is classed as cell-based.
The subject of a further test is human PBMC. The test is classed as cell-based. The conditions noted are these: for Immunogenicity primary: primary cultures, responders/tested.
Test [1] deals with A*0201/Kb transgenic mice. It counts as in vivo. The settings on record: responders/tested.
The test system of another test is A2-supertype alleles. The test is classed as binding, human. The settings on record: for Alleles bound: number of supertype alleles bound, 3 or more considered degenerate.
Test [2] deals with PBMC from patients acutely infected with HBV. The settings on record: responders/tested, cited from earlier work.
Test [3] shares this test system. Kind of test: Patient: recall CTL responses in acutely infected HBV patients. The test is classed as cell-based, human. The conditions noted are these: for Immunogenicity patients: acute patients, responders/tested, no literature mark. As to the method:
Briefly, PBMC from patients acutely infected with HBV were cultured in the presence of 10 μg/ml of synthetic peptide. After seven days, the cultures were restimulated with peptide. The cultures were assayed for cytotoxic activity on day 14 using target cells pulsed with peptide.

Setting [4] is: A2-supermotif cross-reactive peptides.
Where [5] appears, read: positive when responders noted in primary cultures, acute patients or transgenic mice.
The mark [6] stands for this setting: A2 supermotif peptides, number of A2-supertype alleles bound.
Setting [7] is: B7-supermotif cross-reactive peptides.
Where [8] appears, read: A3-supermotif cross-reactive peptides.

Take `C[C@H](N)C(=O)N[C@@H](Cc1ccccc1)C(=O)N[C@H](C(=O)N[C@@H](Cc1ccccc1)C(=O)N[C@@H](CO)C(=O)N1CCC[C@H]1C(=O)N[C@H](C(=O)N[C@@H](Cc1ccc(O)cc1)C(=O)N[C@@H](CCCCN)C(=O)O)[C@@H](C)O)[C@@H](C)O` [20.0130]: the IC50 at A*0301 is 42 nM; at A*3101, 3100 nM.
Consider `CC(C)C[C@H](NC(=O)[C@@H](N)CC(C)C)C(=O)N[C@H](C(=O)N1CCC[C@H]1C(=O)N[C@@H](Cc1ccccc1)C(=O)N[C@H](C(=O)N[C@@H](CCC(N)=O)C(=O)N[C@@H](Cc1c[nH]c2ccccc12)C(=O)N[C@@H](Cc1ccccc1)C(=O)N[C@H](C(=O)O)C(C)C)C(C)C)C(C)C` [1069.06], for which the Immunogenicity overall result in the test with CTL (setting [4]) and in the test with CTL (setting [5]) was “+” throughout. Further, the “immunogenicity in primary human cultures (in words)” value in the test on human PBMC was “immunogenic”. Moreover, the Immunogenicity primary in the test on human PBMC (setting [4]) and with human PBMC was 3/4 each time. Besides, the Immunogenicity transgenic in test [1] (A2 supermotif peptides) and in test [1] (setting [4]) was 6/9 in each case. Also, the “Number of A2-supertype alleles bound” value with A2-supertype alleles (setting [4]) and in the test with A2-supertype alleles (setting [6]) was 5 in each case. This molecule came in with an Alleles bound in the test on A2-supertype alleles of 5.
`CC[C@H](C)[C@H](NC(=O)[C@H](CC(C)C)NC(=O)[C@H](CS)NC(=O)[C@H](CC(C)C)NC(=O)[C@H](CC(C)C)NC(=O)[C@H](CC(C)C)NC(=O)[C@@H](NC(=O)[C@@H](N)Cc1ccccc1)[C@@H](C)CC)C(=O)N[C@@H](Cc1ccccc1)C(=O)N[C@@H](CC(C)C)C(=O)O` [Peptide 1.0895]: the Alleles bound in the test with A2-supertype alleles was determined as 1.
For the molecule `CC(C)C[C@H](NC(=O)[C@H](CC(C)C)NC(=O)[C@@H]1CCCN1C(=O)CNC(=O)[C@H](CC(C)C)NC(=O)[C@@H](N)Cc1ccccc1)C(=O)N[C@H](C(=O)N[C@@H](CC(C)C)C(=O)N[C@@H](CCC(N)=O)C(=O)N[C@@H](C)C(=O)O)C(C)C` [Peptide 3.0205], the Alleles bound with A2-supertype alleles was found to be 1.
At A*0301, `CC[C@H](C)[C@H](NC(=O)[C@H](Cc1c[nH]c2ccccc12)NC(=O)[C@@H](NC(=O)CNC(=O)[C@H](Cc1ccccc1)NC(=O)[C@H](CO)NC(=O)[C@@H](N)C(C)C)C(C)C)C(=O)N[C@@H](CCCNC(=N)N)C(=O)O` [Peptide 26.0023] gave an IC50 of 2750 nM.
On to `CC[C@H](C)[C@H](NC(=O)[C@@H](N)Cc1c[nH]c2ccccc12)C(=O)N[C@@H](CC(C)C)C(=O)N[C@@H](CCCNC(=N)N)C(=O)NCC(=O)N[C@H](C(=O)N[C@@H](CO)C(=O)N[C@@H](Cc1ccccc1)C(=O)N[C@H](C(=O)O)C(C)C)[C@@H](C)O` [Peptide 927.24], for which the Alleles bound in the test on A2-supertype alleles was determined as 1.
Take `CC(C)C[C@H](NC(=O)[C@H](CO)NC(=O)[C@H](CC(C)C)NC(=O)[C@@H](N)Cc1c[nH]c2ccccc12)C(=O)N[C@@H](CC(C)C)C(=O)N[C@H](C(=O)N1CCC[C@H]1C(=O)N[C@@H](Cc1ccccc1)C(=O)N[C@H](C(=O)O)C(C)C)C(C)C` [Peptide 1013.0102]: in the test with A2-supertype alleles, the Alleles bound is 4.
In the test on A2-supertype alleles, `CSCC[C@H](NC(=O)CNC(=O)[C@H](CCC(N)=O)NC(=O)[C@H](Cc1ccc(O)cc1)NC(=O)[C@H](CC(=O)O)NC(=O)[C@H](CC(C)C)NC(=O)[C@H](CC(C)C)NC(=O)[C@@H](N)C(C)C)C(=O)N[C@@H](CC(C)C)C(=O)O` [Peptide 1069.09] returned an Alleles bound of 2.
Take `CC[C@H](C)[C@H](NC(=O)CNC(=O)[C@H](C)NC(=O)[C@H](CCCCN)NC(=O)[C@H](Cc1c[nH]c2ccccc12)NC(=O)[C@H](CC(C)C)NC(=O)[C@@H](NC(=O)[C@H](Cc1c[nH]cn1)NC(=O)[C@H](CC(C)C)NC(=O)[C@@H](N)Cc1ccc(O)cc1)[C@@H](C)O)C(=O)O` [Peptide 1069.11]: in the test on A2-supertype alleles, the Alleles bound worked out at 2.
As for `CC[C@H](C)[C@H](NC(=O)[C@H](Cc1c[nH]cn1)NC(=O)[C@H](Cc1ccccc1)NC(=O)[C@H](Cc1c[nH]c2ccccc12)NC(=O)[C@H](CC(C)C)NC(=O)[C@@H](N)CC(C)C)C(=O)N[C@@H](CO)C(=O)N[C@@H](CS)C(=O)N[C@@H](CC(C)C)C(=O)O` [Peptide 1142.01], the Alleles bound in the test on A2-supertype alleles came to 2.
For `CC(C)C[C@H](NC(=O)[C@H](CS)NC(=O)[C@H](Cc1c[nH]cn1)NC(=O)[C@@H]1CCCN1C(=O)[C@@H](N)Cc1ccccc1)C(=O)N[C@@H](C)C(=O)N[C@@H](Cc1ccccc1)C(=O)N[C@@H](CO)C(=O)N[C@@H](Cc1ccc(O)cc1)C(=O)O` [Peptide 1145.08], the Immunogenicity overall result in the test with CTL (setting [7]) is listed as “−”; in the test with CTL (setting [5]), “unk”. Moreover, the Immunogenicity primary with human PBMC (setting [7]) and in the test on human PBMC was 0/4 in each case.
Turning to `CC[C@H](C)[C@H](NC(=O)CNC(=O)[C@H](C)NC(=O)[C@H](CCCCN)NC(=O)[C@H](Cc1c[nH]c2ccccc12)NC(=O)[C@H](CC(C)C)NC(=O)[C@@H](NC(=O)[C@@H](N)Cc1c[nH]cn1)[C@@H](C)O)C(=O)N[C@@H](CC(C)C)C(=O)N[C@@H](Cc1ccc(O)cc1)C(=O)N[C@@H](CCCCN)C(=O)O` [Peptide 1147.16], at A*0301, the IC50 came out at 20 nM.
With `CC(C)C[C@H](NC(=O)[C@@H](NC(=O)[C@@H](N)Cc1ccccc1)C(C)C)C(=O)NCC(=O)NCC(=O)N[C@@H](CS)C(=O)N[C@@H](CCCNC(=N)N)C(=O)N[C@@H](Cc1c[nH]cn1)C(=O)N[C@@H](CCCCN)C(=O)O` [peptide 1.0219], the Immunogenicity overall result with CTL (setting [8]) is on record as “−”. Moreover, the “immunogenicity in at least one system (in words)” value in the test with CTL (primary cultures, patient responses or HLA transgenic mice) was “With the exception of peptide 1.0219, all of the conserved cross-reactive peptides listed in Table insert table XXXI were found to be immunogenic”. For the same molecule, the Immunogenicity primary in the test on human PBMC (setting [8]) was 0/4. On A*3101, this molecule came in with a half-inhibitory concentration (IC50) of 1500 nM.
With `CC(C)C[C@H](N)C(=O)N1CCC[C@H]1C(=O)N[C@@H](CO)C(=O)N[C@@H](CC(=O)O)C(=O)N[C@@H](Cc1ccccc1)C(=O)N[C@@H](Cc1ccccc1)C(=O)N1CCC[C@H]1C(=O)N[C@@H](CO)C(=O)N[C@H](C(=O)O)C(C)C` [peptide 988.05], the Immunogenicity overall entry with CTL (setting [7]) and with CTL (setting [5]) was “+” each time. Besides, the Immunogenicity patients is 2/16 in test [2] (patients, Bertoni et al) and 2/16 in test [3].
Turning to `CC(C)C[C@H](NC(=O)CNC(=O)[C@@H](NC(=O)[C@H](Cc1ccccc1)NC(=O)[C@H](CC(N)=O)NC(=O)CNC(=O)[C@@H](NC(=O)[C@@H](N)CCCCN)C(C)C)[C@@H](C)O)C(=O)N[C@@H](Cc1ccc(O)cc1)C(=O)O` [peptide 1142.05], the Immunogenicity overall result in the test on CTL (non-crossreactive A3-supermotif peptides) and in the test on CTL (setting [5]) was “+” each time. Also, the Immunogenicity patients in test [2] (patients, Bertoni et al) is 2/22; in test [3] it was 2/22. Also, the “recognition in recall CTL responses from acute HBV patients (in words)” value in test [3] is on record as “recognized in patients”.
As for “peptide 1013.01: A2-restricted peptide (WLSLLVPFV)”, the Immunogenicity overall entry in the test with CTL (setting [4]) and in the test with CTL (setting [5]) was “+” throughout. In addition, the Immunogenicity primary with human PBMC (setting [4]) and in the test with human PBMC was 2/6 in each case. Besides, the Immunogenicity patients is given as 23/29^a in test [2] (acute patients, a-Bertoni et al) and 23/29^a in test [2] (acute patients, from a-Bertoni et al, b-Rehermann et al., c-Nayersina et al.). Moreover, the Immunogenicity transgenic in test [1] (A2 supermotif peptides) and in test [1] (setting [4]) was 5/9 each time. The “Number of A2-supertype alleles bound” value in the test with A2-supertype alleles (setting [4]) and in the test with A2-supertype alleles (setting [6]) was 4 throughout.
